The record followed here is patent US11420958B2, “Aryl and heteroaryl substituted indole compounds” (BRISTOL-MYERS SQUIBB COMPANY, priority 2017, dated 2022).

Holding throughout (format): cell-based
One experiment addresses human TLR7 (Homo sapiens (Human), UniProt Q9NYK1). Briefly: TLR7 inhibition reporter assay (HEK-Blue, SEAP). The conditions noted are these: HEK-Blue cells overexpressing human TLR7, gardiquimod 7.5 μM stimulation. The procedure, abridged: (§1)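 SEAP read-out via detection medium after 22 h at 37 °C, 5% CO2; percent inhibition relative to agonist-plus-DMSO and known-inhibitor wells. Agonists: TLR7 gardiquimod 7.5 μM, TLR8 R848 15.9 μM, TLR9 ODN2006 5 nM (final). Compound range 0.05 nM–50 μM, 30 min pre-treatment.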

A further experiment concerns the target human TLR8 (Homo sapiens (Human), UniProt Q9NR97). Briefly: TLR8 inhibition reporter assay (HEK-Blue, SEAP). The conditions noted are these: HEK-Blue cells overexpressing human TLR8, R848 15.9 μM stimulation. The procedure, abridged:
as §1

Another experiment has as its target human TLR9 (Homo sapiens (Human), UniProt Q9NR96). Nature of the experiment: TLR9 inhibition reporter assay (HEK-Blue, SEAP). As to conditions: HEK-Blue cells overexpressing human TLR9, ODN2006 5 nM stimulation. The essentials: as §1

Sequence of human TLR7 (Q9NYK1 27-1049): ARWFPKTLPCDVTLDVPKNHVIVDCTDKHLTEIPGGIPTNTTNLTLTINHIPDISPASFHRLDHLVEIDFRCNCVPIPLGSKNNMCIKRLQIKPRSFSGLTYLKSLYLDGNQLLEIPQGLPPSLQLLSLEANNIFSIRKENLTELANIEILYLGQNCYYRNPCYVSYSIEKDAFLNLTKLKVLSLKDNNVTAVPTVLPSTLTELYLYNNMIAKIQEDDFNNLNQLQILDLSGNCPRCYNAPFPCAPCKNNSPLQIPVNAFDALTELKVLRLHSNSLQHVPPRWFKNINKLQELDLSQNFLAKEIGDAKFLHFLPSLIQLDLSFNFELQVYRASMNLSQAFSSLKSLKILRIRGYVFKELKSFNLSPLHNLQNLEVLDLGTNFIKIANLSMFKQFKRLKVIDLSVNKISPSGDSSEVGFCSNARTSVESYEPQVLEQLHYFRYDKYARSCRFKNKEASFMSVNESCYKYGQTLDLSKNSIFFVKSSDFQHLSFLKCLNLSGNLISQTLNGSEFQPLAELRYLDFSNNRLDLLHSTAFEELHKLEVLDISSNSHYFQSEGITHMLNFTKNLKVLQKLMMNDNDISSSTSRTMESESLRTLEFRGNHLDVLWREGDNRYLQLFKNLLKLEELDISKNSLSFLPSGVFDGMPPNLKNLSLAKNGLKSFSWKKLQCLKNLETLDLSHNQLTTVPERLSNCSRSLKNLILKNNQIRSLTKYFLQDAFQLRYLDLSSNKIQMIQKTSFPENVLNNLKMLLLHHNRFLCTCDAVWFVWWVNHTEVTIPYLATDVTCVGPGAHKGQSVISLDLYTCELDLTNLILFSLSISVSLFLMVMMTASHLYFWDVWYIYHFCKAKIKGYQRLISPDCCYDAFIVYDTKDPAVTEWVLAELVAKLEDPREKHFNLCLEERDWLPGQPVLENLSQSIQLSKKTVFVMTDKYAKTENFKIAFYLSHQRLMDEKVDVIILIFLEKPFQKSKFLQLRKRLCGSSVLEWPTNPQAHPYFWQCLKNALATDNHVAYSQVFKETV
Sequence of human TLR9 (Q9NR96 26-1032): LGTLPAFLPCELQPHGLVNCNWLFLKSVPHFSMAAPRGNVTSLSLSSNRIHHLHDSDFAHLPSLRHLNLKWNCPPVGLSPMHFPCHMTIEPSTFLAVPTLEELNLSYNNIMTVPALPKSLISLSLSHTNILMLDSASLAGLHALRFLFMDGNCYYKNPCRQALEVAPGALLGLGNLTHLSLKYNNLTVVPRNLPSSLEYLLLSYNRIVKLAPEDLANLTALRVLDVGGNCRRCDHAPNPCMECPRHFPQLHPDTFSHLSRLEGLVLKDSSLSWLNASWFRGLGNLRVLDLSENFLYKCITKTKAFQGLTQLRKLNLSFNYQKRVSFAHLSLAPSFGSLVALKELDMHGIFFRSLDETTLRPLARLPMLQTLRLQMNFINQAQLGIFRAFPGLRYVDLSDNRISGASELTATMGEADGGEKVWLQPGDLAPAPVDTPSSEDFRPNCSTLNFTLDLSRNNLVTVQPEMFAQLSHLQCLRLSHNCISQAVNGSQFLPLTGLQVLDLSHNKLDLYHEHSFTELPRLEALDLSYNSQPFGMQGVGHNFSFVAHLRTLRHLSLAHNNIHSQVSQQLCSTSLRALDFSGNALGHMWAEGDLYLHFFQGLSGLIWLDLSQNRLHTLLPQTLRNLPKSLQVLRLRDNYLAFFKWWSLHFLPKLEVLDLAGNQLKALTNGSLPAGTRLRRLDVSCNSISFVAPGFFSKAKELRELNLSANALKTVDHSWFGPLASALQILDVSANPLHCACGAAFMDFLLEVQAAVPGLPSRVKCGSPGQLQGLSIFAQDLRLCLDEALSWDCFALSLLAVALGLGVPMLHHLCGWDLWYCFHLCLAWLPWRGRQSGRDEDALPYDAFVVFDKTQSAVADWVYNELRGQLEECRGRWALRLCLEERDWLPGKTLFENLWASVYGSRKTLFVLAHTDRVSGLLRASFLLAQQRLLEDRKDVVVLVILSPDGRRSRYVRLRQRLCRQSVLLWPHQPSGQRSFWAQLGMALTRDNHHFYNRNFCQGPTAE
Sequence of human TLR8 (Q9NR97 27-1041): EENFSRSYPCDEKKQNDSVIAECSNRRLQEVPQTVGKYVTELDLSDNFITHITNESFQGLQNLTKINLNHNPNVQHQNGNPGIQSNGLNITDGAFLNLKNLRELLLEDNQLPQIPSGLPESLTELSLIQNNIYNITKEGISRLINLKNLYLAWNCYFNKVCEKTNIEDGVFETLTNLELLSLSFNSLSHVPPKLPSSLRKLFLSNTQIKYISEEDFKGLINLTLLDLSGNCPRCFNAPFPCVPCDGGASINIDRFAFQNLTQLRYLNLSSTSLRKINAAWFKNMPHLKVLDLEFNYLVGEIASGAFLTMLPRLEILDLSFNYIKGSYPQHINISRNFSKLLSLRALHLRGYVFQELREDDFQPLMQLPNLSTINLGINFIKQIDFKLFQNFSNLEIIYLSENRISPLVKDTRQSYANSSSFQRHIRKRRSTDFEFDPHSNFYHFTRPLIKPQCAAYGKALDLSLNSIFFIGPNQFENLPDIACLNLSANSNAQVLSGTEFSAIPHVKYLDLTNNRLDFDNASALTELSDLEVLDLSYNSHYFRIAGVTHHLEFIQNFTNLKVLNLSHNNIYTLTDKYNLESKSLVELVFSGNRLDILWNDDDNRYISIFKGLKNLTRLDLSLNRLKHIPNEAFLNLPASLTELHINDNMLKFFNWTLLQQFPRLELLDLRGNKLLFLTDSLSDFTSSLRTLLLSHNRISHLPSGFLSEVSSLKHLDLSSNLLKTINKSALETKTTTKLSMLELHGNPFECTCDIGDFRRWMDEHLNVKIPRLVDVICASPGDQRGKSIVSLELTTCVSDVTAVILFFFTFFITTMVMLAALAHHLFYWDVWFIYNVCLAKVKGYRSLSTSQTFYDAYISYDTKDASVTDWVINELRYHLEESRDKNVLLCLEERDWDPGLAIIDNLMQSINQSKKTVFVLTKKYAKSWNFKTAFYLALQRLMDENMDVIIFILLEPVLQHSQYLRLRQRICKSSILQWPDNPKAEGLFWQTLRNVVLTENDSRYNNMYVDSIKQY

In the case of `Cc1cc(-c2[nH]c3ccc(-c4nnc(C5CCCN(C(C)C)C5)[nH]4)cc3c2C(C)C)cc(C)n1` (stereo not drawn) [Example 340, 2-(2,6-dimethylpyridin-4-yl)-3-isopropyl-5-(5-(1-isopropylpiperidin-3-yl)-4H-1,2,4-triazol-3-yl)-1H-indole], the results for the IC50 against human TLR7, at human TLR8 and against human TLR9 were 4 nM, 3.6 nM and 262 nM, respectively.
Turning to `Cc1cc(-c2[nH]c3ccc(-c4cc5c(s4)CN(C(=O)CN(C)C)CC5)cc3c2C(C)C)cc(C)n1` [Example 341, 2-(dimethylamino)-1-(2-(2-(2,6-dimethylpyridin-4-yl)-3-isopropyl-1H-indol-5-yl)-4,7-dihydrothieno[2,3-c]pyridin-6(5H)-yl)ethan-1-one], the IC50 against human TLR7 is 6.4 nM; at human TLR8, 5.9 nM; against human TLR9 it was 295 nM.
In the same order, the values of `Cc1cc(-c2[nH]c3ccc(-c4cc5c(s4)CN(CC(=O)N(C)C)CC5)cc3c2C(C)C)cc(C)n1` [Example 342, 2-(2-(2-(2,6-dimethylpyridin-4-yl)-3-isopropyl-1H-indol-5-yl)-4,7-dihydrothieno[2,3-c]pyridin-6(5H)-yl)-N,N-dimethylacetamide] are 19 nM, 8.9 nM and 1330 nM.
In the same order, the values of `Cc1cc(-c2[nH]c3ccc(-c4cc5c(s4)CN(Cc4c[nH]c(C)n4)CC5)cc3c2C(C)C)cc(C)n1` [Example 343, 2-(2-(2,6-dimethylpyridin-4-yl)-3-isopropyl-1H-indol-5-yl)-6-((2-methyl-1H-imidazol-4-yl)methyl)-4,5,6,7-tetrahydrothieno[2,3-c]pyridine] are 3.7 nM, 1.3 nM and 146 nM.
For `Cc1cc(-c2[nH]c3ccc(-c4ccnc(C5CCNCC5)c4)cc3c2C(C)C)cc(C)n1` [Example 344, 2-(2,6-dimethylpyridin-4-yl)-3-isopropyl-5-(2-(piperidin-4-yl)pyridin-4-yl)-1H-indole], in that order: 5 nM, 7.9 nM and 181 nM.
Take `Cc1cc(-c2[nH]c3ccc(-c4ccnc(C5CCN(C(C)C)CC5)c4)cc3c2C(C)C)cc(C)n1` [Example 345, 2-(2,6-dimethylpyridin-4-yl)-3-isopropyl-5-(2-(1-isopropylpiperidin-4-yl)pyridin-4-yl)-1H-indole]: the IC50 was 13 nM against human TLR7, 8.5 nM against human TLR8 and 183 nM on human TLR9.
As to `CNc1nnc(-c2ccc3[nH]c(-c4ccnc(C)c4)c(C(C)C)c3c2)o1` [Example 346, 5-(3-isopropyl-2-(2-methylpyridin-4-yl)-1H-indol-5-yl)-N-methyl-1,3,4-oxadiazol-2-amine], the 50% inhibitory concentration (IC50) was 158 nM at human TLR7, 32 nM at human TLR8 and above 50000 nM at human TLR9.
For `Cc1cc(-c2[nH]c3ccc(-c4cn5cc(C)nc5cc4C)cc3c2C(C)C)cc(C)n1` [Example 347, 6-(2-(2,6-dimethylpyridin-4-yl)-3-isopropyl-1H-indol-5-yl)-2,7-dimethylimidazo[1,2-a]pyridine], in that order: 6.6 nM, 6.9 nM and 592 nM.
Regarding `Cc1cc(-c2[nH]c3ccc(-c4cn5cc(C)nc5cc4F)cc3c2C(C)C)cc(C)n1` [Example 348, 6-(2-(2,6-dimethylpyridin-4-yl)-3-isopropyl-1H-indol-5-yl)-7-fluoro-2-methylimidazo[1,2-a]pyridine], the values for the IC50 on human TLR7, against human TLR8 and against human TLR9 were 3.7 nM, 20 nM and 3640 nM, respectively.
As to `Cc1cc(-c2[nH]c3ccc(-c4ccc(N)nn4)cc3c2C(C)C)cc(C)n1` [Example 349, 6-(2-(2,6-dimethylpyridin-4-yl)-3-isopropyl-1H-indol-5-yl)pyridazin-3-amine], the IC50 against human TLR7 is 8.6 nM; on human TLR8 it was 5.6 nM; against human TLR9, 2120 nM.
With `Cc1cc(-c2[nH]c3ccc(-c4csc(N5CCCCC5)n4)cc3c2C(C)C)cc(C)n1` [Example 350, 4-(2-(2,6-dimethylpyridin-4-yl)-3-isopropyl-1H-indol-5-yl)-2-(piperidin-1-yl)thiazole], the IC50 was 742 nM against human TLR7, 685 nM against human TLR8 and above 50000 nM at human TLR9.
In the same order, the values of `Cc1cc(-c2[nH]c3ccc(-c4cc5c(s4)CN(C(=O)C[C@H](C)O)CC5)cc3c2C(C)C)cc(C)n1` [Example 351, (S)-1-(2-(2-(2,6-dimethylpyridin-4-yl)-3-isopropyl-1H-indol-5-yl)-4,7-dihydrothieno[2,3-c]pyridin-6(5H)-yl)-3-hydroxybutan-1-one] are 64 nM, 46 nM and 32900 nM.
For the compound `Cc1cc(-c2[nH]c3ccc(-c4cc5c(s4)CN(C(=O)C4CC(=O)N(C)C4)CC5)cc3c2C(C)C)cc(C)n1` (stereo not drawn) [Example 352, 4-(2-(2-(2,6-dimethylpyridin-4-yl)-3-isopropyl-1H-indol-5-yl)-4,5,6,7-tetrahydrothieno[2,3-c]pyridine-6-carbonyl)-1-methylpyrrolidin-2-one], the IC50 turned out to be 143 nM against human TLR7, 49 nM on human TLR8 and 20400 nM against human TLR9.
In the same order, the values of `Cc1cc(-c2[nH]c3ccc(-c4cc5c(s4)CN(C(=O)CS(C)(=O)=O)CC5)cc3c2C(C)C)cc(C)n1` [Example 353, 1-(2-(2-(2,6-dimethylpyridin-4-yl)-3-isopropyl-1H-indol-5-yl)-4,7-dihydrothieno[2,3-c]pyridin-6(5H)-yl)-2-(methylsulfonyl)ethan-1-one] are 53 nM, 39 nM and above 50000 nM.
On to `Cc1cc(-c2[nH]c3ccc(-c4cn5c(n4)CNCC5)cc3c2C(C)C)cc(C)n1` [Example 354, 2-(2-(2,6-dimethylpyridin-4-yl)-3-isopropyl-1H-indol-5-yl)-5,6,7,8-tetrahydroimidazo[1,2-a]pyrazine], for which the IC50 against human TLR7 stood at 48 nM; on human TLR8 it was 2.8 nM; at human TLR9 it was 2100 nM.
Consider `Cc1cc(-c2[nH]c3ccc(-c4ccn5ncnc5c4C)cc3c2C(C)C)cc(C)n1` [Example 355, 7-(2-(2,6-dimethylpyridin-4-yl)-3-isopropyl-1H-indol-5-yl)-8-methyl-[1,2,4]triazolo[1,5-a]pyridine], for which the IC50 at human TLR7 amounted to 57 nM; at human TLR8 it was 176 nM; against human TLR9, 25200 nM.
Regarding `CNCC(=O)Nc1cnc(-c2ccc3[nH]c(-c4cc(C)nc(C)c4)c(C(C)C)c3c2)cn1` [Example 356, N-(5-(2-(2,6-dimethylpyridin-4-yl)-3-isopropyl-1H-indol-5-yl)pyrazin-2-yl)-2-(methylamino)acetamide], the IC50 against human TLR7 was determined as 10 nM; against human TLR8 it was 4.6 nM; at human TLR9 it was 952 nM.
As for `Cc1cc(-c2[nH]c3ccc(-c4nnc(C5CCCN(C(C)C)C5)[nH]4)cc3c2C(C)C)cc(C)n1` (stereo not drawn) [Example 357, 2-(2,6-dimethylpyridin-4-yl)-3-isopropyl-5-(5-(1-isopropylpiperidin-3-yl)-4H-1,2,4-triazol-3-yl)-1H-indole], the values for the IC50 against human TLR7, on human TLR8 and at human TLR9 were 4.4 nM, 1.4 nM and 205 nM, respectively.
Regarding `Cc1cc(-c2[nH]c3ccc(-c4nnc(C5CCCN(C(C)C)C5)[nH]4)cc3c2C(C)C)cc(C)n1` (stereo not drawn) [Example 358, 2-(2,6-dimethylpyridin-4-yl)-3-isopropyl-5-(5-(1-isopropylpiperidin-3-yl)-4H-1,2,4-triazol-3-yl)-1H-indole], the IC50 at human TLR7 was determined as 4.9 nM; on human TLR8, 1.6 nM; at human TLR9, 157 nM.
For `Cc1cc(-c2[nH]c3ccc(-c4cnc(N)cn4)cc3c2C(C)C)ccn1` [Example 359, 5-(3-isopropyl-2-(2-methylpyridin-4-yl)-1H-indol-5-yl)pyrazin-2-amine], the IC50 against human TLR7 came to 17 nM; against human TLR8 it was 7.5 nM; on human TLR9 it was 14400 nM.
For `Cc1cc(-c2[nH]c3ccc(-c4ccc(N)nn4)cc3c2C(C)C)ccn1` [Example 360, 6-(3-isopropyl-2-(2-methylpyridin-4-yl)-1H-indol-5-yl)pyridazin-3-amine], the IC50 against human TLR7 was determined as 58 nM; on human TLR8, 16 nM; against human TLR9, 27000 nM.
Regarding `Cc1cc(-c2[nH]c3ccc(-c4cc5c(s4)CN(C)CC5)cc3c2C(C)C)cc(C)n1` [Example 361, 2-(2-(2,6-dimethylpyridin-4-yl)-3-isopropyl-1H-indol-5-yl)-6-methyl-4,5,6,7-tetrahydrothieno[2,3-c]pyridine], the concentration for half-maximal inhibition (IC50) came to 6 nM against human TLR7, 1.5 nM against human TLR8 and 490 nM at human TLR9.
For the compound `CC(=O)N1CCc2nc(-c3ccc4[nH]c(-c5cc(C)nc(C)c5)c(C(C)C)c4c3)sc2C1` [Example 362, 1-(2-(2-(2,6-dimethylpyridin-4-yl)-3-isopropyl-1H-indol-5-yl)-6,7-dihydrothiazolo[5,4-c]pyridin-5(4H)-yl)ethan-1-one], the results for the half-inhibitory concentration (IC50) against human TLR7, against human TLR8 and on human TLR9 were 6.4 nM, 9 nM and above 50000 nM, respectively.
As to `Cc1cc(-c2[nH]c3ccc(-c4nc5c(s4)CN(C(=O)CN(C)C)CC5)cc3c2C(C)C)cc(C)n1` [Example 363, 2-(dimethylamino)-1-(2-(2-(2,6-dimethylpyridin-4-yl)-3-isopropyl-1H-indol-5-yl)-6,7-dihydrothiazolo[5,4-c]pyridin-5(4H)-yl)ethan-1-one], the IC50 against human TLR7 was 0.8 nM; on human TLR8, 2.3 nM; against human TLR9 it was 151 nM.
